Assay results taken from patent US20250171468A1, “PHENOXIDO COPPER COMPLEXES AND METHODS FOR USING THEM IN THE TREATMENT OF CANCER” (UNIVERSITY OF LOUISIANA LAFAYETTE, priority 2023, published 2025).

Assays:
A2780 cells [1] = test: Autophagy induction, CYTO-ID kit flow cytometry; assay type: cell-based, human; conditions: A2780, 24 h; 4 and 6 at 3 μM, 7 at 15 μM, cisplatin at 19 μM
Procedure: To further explore the mechanisms involved in the cellular death of A2780 cells induced by the complexes, the autophagy progression was monitored in the cells using a specific flow cytometry-based kit. The autophagy signaling caused by the incubation with the tested compounds was compared to the untreated control group of cells and positive control group, which included cells treated with the chloroquine/rapamycin (CQ/Rapamycin) mixture inducing strong autophagic response in cells. […] In fact, autophagy might have a dual role in cancer as it can help the cancer cells to overcome metabolic stress (hypoxia, lack of nutrients) and suppress tumor progression through degradation of oncogenic proteins. Many anticancer agents, including the copper(II) complexes, which mechanism of action includes different cellular processes, such as inhibition of mTORC1, proteasome inhibition, inhibition of histone deacetylases or topoisomerases, induce autophagy. On the other hand, the apoptosis is evidently a main route of cell death in the A2780 cells caused by complex 7.
The analyses were performed according to the manufacturer's protocol on A2780 cells pretreated for 24 h by the tested compounds. […] The samples were analyzed using the BD FACSVerse flow cytometer (Becton Dickinson, USA) in three separate experiments, while at least 10^4 events were recorded for each sample prepared in duplicates. […]

A2780 cells [2] = test: Cell death induction, Annexin V / propidium iodide flow cytometry; assay type: cell-based, human; conditions: A2780, 24 h; applied at concentration causing 50% decrease in proliferation
Procedure: The induction of cell death in A2780 cancer cells was monitored by flow cytometry. Three types of cells were identified by incubation with Annexin V antibody and propidium iodide (PI). The normal cells were Annexin V and PI negative.
(§1) Both assays were performed according to the manufacturers' protocols with one modification in caspase induction assay, which was the use of CellEvent™ Caspase-3/7 Green Detection Reagent only for detection of Caspase-3/7 activation. […] After the 24 h incubation period, cells were washed once with PBS (0.1 M, pH 7.4), detached by trypsinization (0.25% trypsin-EDTA (Gibco™), resuspended in 500 L of culture medium and divided into two separate samples. The first sample was used in the apoptosis assay and the second one was used to detect the activation of caspases 3/7 in A2780 cells. The samples were analyzed using the BD FACSVerse flow cytometer (Becton Dickinson, USA) in three separate experiments, while at least 10^4 events were recorded for each sample prepared in duplicates.

[3] = tested on: caspases 3/7 in A2780 cells; test: Activation of effector caspases 3/7, flow cytometry; assay type: cell-based, human; conditions: A2780, 24 h incubation, IC50 concentrations
Procedure: To assess the participation of apoptosis on the cell death induced by the studied complexes, the activity of effector caspases 3/7 in A2780 cells incubated with the tested compounds was determined by flow cytometry. […] This unequivocally means that the cell death they induce proceeds via a mechanism independent from caspases.
as §1

A2780 cells [4] = test: Cell cycle analysis by flow cytometry; assay type: cell-based, human; conditions: A2780, 24 h; 4 and 6 at 3 μM, 7 at 15 μM, cisplatin at 19 μM
Procedure: Similar cellular effects were described for a number of copper(II) complexes previously for a number of copper(II) complexes involving various ligands [40-43.]
The A2780 cells (Sigma, 93112519-1VL) were cultivated according to the producer's instructions and seeded at the concentration of 10^4 cells/well in 96-wells. […] After 24 h, the cells were washed once with PBS (0.1 M, pH 7.4) and cell cycle analysis was performed according to the protocol based on BD Cycletest™ Plus DNA kit (Becton Dickinson, USA). Measurements were performed using BD FACSVerse flow cytometer (Becton Dickinson, USA) in three independent experiments, each done in duplicate, while at least 5×10^3 events were recorded for each sample.

A2780 cells [5] = test: Mitochondrial membrane potential analysis; assay type: cell-based, human; conditions: A2780, 24 h incubation, IC50 concentrations
Procedure: In order to get more insight about the mechanisms involved in the induction of cell death in the A2780 cells treated with the complexes 4, 6, and 7, the detection of mitochondrial membrane potential in the cells was performed by means of flow cytometric analysis using a specific kit. […] Both these agents induced the apoptosis via the intrinsic route of apoptosis activation, characterized by the efflux of cytochrome c from the damaged mitochondria to the cytoplasm of the cells, followed by the formation of […] and activation of effector caspases 3/7 leading to the destruction of cell cytoskeleton and fragmentation of DNA. […] The major suspect in this case is the induction of cuproptosis, a relatively newly discovered mechanism of cell death caused by copper, which is characterized by the high intracellular levels of copper, low levels of apoptosis, yet substantial antiproliferative effects on the target cells. […]
The cells were washed with PBS, detached by trypsin treatment, isolated by centrifugation, and resuspended in 500 iL of culture medium. […] The samples were measured in triplicates, while at least 10^4 events were recorded using BD FACSVerse flow cytometer (Becton Dickinson, USA). […]

A2780 cells [6] = test: Intracellular ROS/superoxide production; assay type: cell-based, human; conditions: A2780, 24 h
Procedure: The effects of the tested compounds on the ROS production in A2780 cells and on the progression of the oxidative stress caused by the known pro-oxidant agent (pyocyanin) were observed by means of flow cytometry using a specific kit of intracellular ROS, and superoxide detection, respectively. […] Approximately the same pattern was identified also in case of superoxide production (FIG. 16).
The oxidative stress analysis was performed using ROS-ID® Total ROS/Superoxide detection kit (Enzo Life Sciences, US) according to the manufacturer protocol. The samples were analyzed in triplicates on multimode microplate reader Infinite PRO M200 (Tecan, Switzerland). The control samples contained 500 iM pyocyanin.

[7] = tested on: all tested cancer cell lines; conditions: cited from earlier work

N.N.[Cl][Pt][Cl] [Cisplatin, cisplatin, reference compound]
activation of autophagy (A2780 cells [1]): significant activation of autophagy
induction of cell death (apoptosis and necrosis) (A2780 cells [2]): most intensive induction of cell death processes
activation of effector caspases 3/7 [3]: significant activation
cell-cycle modification (A2780 cells [4]): significant arrest of cells in S phase
mitochondrial membrane damage (A2780 cells [5]): impairment of the mitochondrial membrane function/permeability
promotion of oxidative stress (ROS production) by the compound itself (A2780 cells [6]; no pyocyanin pretreatment): none of the tested complexes 4, 6, and 7 nor cisplatin showed any significant abilities to promote the oxidative stress by themselves
effect on oxidative stress caused by pyocyanin pretreatment (A2780 cells [6]; pretreated with pyocyanin): only slight antioxidative effects

[Cu+2].[O-]c1cccc2cccnc12.[O-]c1cccc2cccnc12 [[Cu(8-HQ)2]]
IC50 compared with cisplatin [7]: less than that of cisplatin

[Cu+2].[O-]c1c(I)cc(Cl)c2cccnc12.[O-]c1c(I)cc(Cl)c2cccnc12 [[Cu(CQ)2]]
IC50 compared with cisplatin [7]: less than that of cisplatin

CCN(CC)C(=S)[S-].CCN(CC)C(=S)[S-].[Cu+2] [[Cu(DDC)2]]
IC50 compared with cisplatin [7]: less than that of cisplatin

On1ccccc1=S.On1ccccc1=S.[Cu] [[Cu(Pyr)2]]
IC50 compared with cisplatin [7]: less than that of cisplatin
